These results are taken from US11033572B2, “Molecular adjuvants for enhanced cytosolic delivery of active agents” (Universiteit Gent, priority 2017, dated 2021).

What all share (assay type): cell-based
For series [1], the system named is H1299_eGFP cells. Put plainly: Cell viability following CAD incubation (CellTiter GLO). Here is the method: The silencing potential of siPLK1-NGs was established through evaluating the cell viability. Hereto, we applied the CellTiter GLO® assay (Promega, Belgium) according to the manufacturer's guidelines. Before initiating the assay, the culture plates and reconstituted assay buffer were placed at room temperature for 30 minutes. Next, the culture medium was replaced by 250 μL fresh cell medium and an equal volume of assay buffer was added. To induce complete cell lysis, the plates were shaken during 2 minutes and the signal was allowed to stabilize the following 10 minutes. 100 μL from each well was subsequently transferred to an opaque 96-well plate, which was measured with a GloMax® 96 Microplate Luminometer (Promega, Belgium). Three biological replicates were performed and data are expressed as the mean cell viability±SEM.
Please note that we only applied siCTRL-loaded NGs in this set of experiments. With the interest of evaluating the possible effect of our treatment on cell viability, the CellTiter GLO® assay was performed as described above. Again, three biological replicates were performed and data are expressed as the mean±SEM.
On the technique in general: In ATP-based viability assays light output follows the ATP content of the culture.

For series [2], the system named is H1299_WT cells. Put plainly: Sphingomyelin detection with lysenin. The settings on record: after siNG transfection. Here is the method: Cell seeding, transfection and DL treatment of the H1299_WT cells occurred similar to the previous microscopy experiments. The subsequent staining procedure was carried out at room temperature. Following one washing step with PBS, the cells were fixed with 4% PFA during 15 minutes. The fixative was removed, the cells washed twice with PBS and permeabilized with 0.5% Tween 20 for 15 minutes. Next, the cells were washed twice with blocking buffer (BB, 2 wt % bovine serum albumin (Amresco, USA) in PBS) and kept in BB during 30 minutes. Upon removal, the cells were incubated 2 hours with a 1 μg/mL lysenin (Sigma-Aldrich, Belgium) solution in BB. Next the cells were washed twice with PBS before incubating 1 hour with the lysenin rabbit anti-human antiserum (1:500 in BB, Peptanova, Germany). Before and after the subsequent 1 hour incubation period with the secondary goat anti-rabbit Alexa Fluor 647 antibody (1:500 in BB, Molecular Probes™, Belgium), cells were washed with BB. Finally the cells were washed with PBS and stored at 4° C. covered with Vectashield containing DAPI. Using the 408 nm and 633 nm laser lines, the nuclei and sphingomyelin were excited respectively and detected with a LSCM and a 60× oil immersion objective.

Series [3] relates to H1299_eGFP cells. The experiment in a line: Transfection with Lipofectamine RNAiMAX or DOTAP-DOPE liposomes, with or without desloratadine, eGFP silencing. The conditions noted are these: 40 μM, 2 h. As for the experimental part: Lipofectamine® RNAiMAX (Invitrogen, Belgium) was applied as prescribed by the manufacturer. In short, equal volumes of RNAiMAX and siRNA dilutions were mixed and allowed to complex during 5 minutes at room temperature. Transfection occurred in Opti-MEM®. According to the guidelines, 5 pmol siRNA/well was applied to obtain optimal transfection efficiencies. To allow comparison with the siNG transfection methods, the RNAiMAX lipoplexes were additionally further diluted to 0.6 pmol siRNA/well. […] Of note, a single biological replicate was performed with three technical replicates and data are represented as the mean±SEM.
DOTAP (2,3-dioleoyloxy-propyl)-trimethylammonium)—DOPE (1,2-dioleoyl-sn-glycero-3-phosphoethanolamine) liposomes (LPS) were prepared via the lipid film hydration method. […]
For silencing experiments, H1299_eGFP cells were seeded in 24 well plates at a density of 35000 cells/well and were allowed to settle overnight. […] SiNG-mediated eGFP silencing was determined by flow cytometry. […] For each sample the forward and side scatter as well as the green fluorescent signal were measured for at least 5000 cells. The samples were excited with the 488 nm laser line and the signal was detected with the 530/30 filter using the FACSCalibur™ flow cytometer (BD Biosciences, Belgium) and BD CellQuest™ acquisition software.

Series [4] deals with H1299_WT cells. Put plainly: Release of FITC-dextrans into the cytosol (confocal microscopy). The conditions noted are these: 40 μM, 20 h, 10 kDa FITC-dextran; listed as DL. As for the experimental part: To visualize the FITC-dextran release, a 1 mg/mL dispersion of 10 kDa FITC-dextrans (Sigma-Aldrich, Belgium) in complete cell medium was added during 1 hour at 37° C. in a humidified atmosphere containing 5% CO2. To assess oligonucleotide escape, the NGs were first loaded with 100 nM Alexa Fluor 647-labeled oligonucleotides (21-mer) (Eurogentec, Belgium) according to the procedure described for siRNA complexation. Of note, these oligonucleotides transfer to the nucleus upon release into the cytosol (Rehman et al., ACS Nano, 2013). Following four hours of NG transfection or 1 h incubation with FITC-dextrans, the cells were washed with PBS and received 1.5 mL fresh cell medium with or without 10, 20 or 40 μM DL. After an additional incubation period of 20 hours, the cell medium was removed and nuclei were labeled with Hoechst (Molecular Probes™, Belgium) in cell medium during 15 minutes at 37° C. […]
The samples were imaged using a laser scanning confocal microscope (LSCM, C1si, Nikon) and a 60× oil immersion Plan Apo objective (Nikon, Belgium). […] During data analysis with the ImageJ image processing software (NIH) both the total cell number and amount of cells with a diffuse FITC-dextran labeling or oligonucleotide-positive nuclei were counted. […]

Series [5] concerns H1299_eGFP cells. The experiment in a line: siNG transfection and sequential adjuvant treatment, eGFP silencing by flow cytometry. (A flow cytometer gives signals particle by particle.)

SMILES strings stand for the structures.

In the case of `Clc1ccc2c(c1)CCc1cccnc1C2=C1CCNCC1` [(3) Desloratadine, Desloratadine], the “additional cytotoxicity compared to siNGs alone” value in the series with H1299_eGFP cells [1] is “did not cause any additional cytotoxicity”. The “transfected cells remaining viable” value with H1299_eGFP cells [1] (human, 20 h, 40 μM) is recorded as ~60%. Besides, the “sphingomyelin (lysenin) signal” value in the series on H1299_WT cells [2] is reported as “signal increases as a function of the desloratadine concentration”. For the same molecule, in the series with H1299_eGFP cells [3], the “cytosolic siRNA delivery via cationic liposomes” value is “not able to enhance cytosolic siRNA delivery”. Moreover, the “Cells with diffuse FITC-dextran labeling” value with H1299_WT cells [4] is given as 26%. Moreover, the “siNG-mediated gene silencing, 2 h versus 20 h incubation” value in the series with H1299_eGFP cells [5] (incubation 2 h or 20 h) was “improve siNG-mediated gene silencing to a similar extent”. In addition, in the series on H1299_eGFP cells [5] (sequential treatment 10, 20 or 40 μM, 20 h, siNGs 2 nM siRNA), the “adjuvant effect on siNG-mediated eGFP silencing” value is reported as “significant additional silencing”.
